Laboratory results published in paper PMC10035507, “Inhibiting IGF1R-mediated Survival Signaling in Head and Neck Cancer with the Peptidomimetic SSTNIGF1R” (Cancer Research Communications, 2023).
Ends that are not written are not given here.

Experiments:
SCC6 HNSCC cell line = test: Cell proliferation assay (CellTiter-GLO); assay type: cell-based, human; details: 4 days, up to 30 μmol/L, n = 4
Experimental: (§1) Cells (1–2 × 10^3/well) were plated in 96-well plates in complete culture medium in the presence or absence of the SSTNIGF1R peptide for 72–120 hours, or alternatively in the presence or absence of the SSTNIGF1R peptide or ASK inhibitor for 24 hours. Cell growth was measured against a standard curve using CellTiter-GLO, in accordance with the manufacturer's instructions.

UM-SCC1 HNSCC cell line = test: Cell proliferation assay (CellTiter-GLO); assay type: cell-based, human; details: 4 days, up to 30 μmol/L, n = 4
Experimental: as §1

HaCaT keratinocytes = test: Cell proliferation assay (CellTiter-GLO); assay type: cell-based, human; details: 4 days, up to 30 μmol/L, n = 3
Experimental: as §1

UD-SCC2 HNSCC cell line = test: Cell proliferation assay (CellTiter-GLO); assay type: cell-based, human; details: 4 days, up to 30 μmol/L, n = 4
Experimental: as §1

SCC90 HNSCC cell line = test: Cell proliferation assay (CellTiter-GLO); assay type: cell-based, human; details: 4 days, up to 30 μmol/L, n = 4
Experimental: as §1

[1] = test system: NOKs (normal oral keratinocytes); test: Cell proliferation assay (CellTiter-GLO); assay type: cell-based, human; details: NOK, 4 days, up to 30 μmol/L, n = 3
Experimental: as §1

TU-138 HNSCC cell line = test: Cell proliferation assay (CellTiter-GLO); assay type: cell-based, human; details: 4 days, up to 30 μmol/L, n = 4
Experimental: as §1

normal HTE cells = test: Cell proliferation assay (CellTiter-GLO); assay type: cell-based, human; details: 4 days, up to 30 μmol/L, n = 3
Experimental: as §1

UM-SCC47 cells [2] = test system: UM-SCC47 cells
SCC25 cells [3] = test system: SCC25 cells
UM-SCC47 cells [4] = test: Caspase assay (Caspase 3/7-GLO); assay type: cell-based, human; details: 24 hours, increasing concentrations of NQD1 up to 30 μmol/L
Experimental: (§2) The activation of stress/apoptosis markers was analyzed as described previously ([17]). Caspase activity was measured in cells in complete culture medium with SSTNIGF1R or ASK inhibitor for 24 hours using Caspase 3/7-GLO in accordance with the manufacturer's instructions.

[5] = biological target: T1, IGF1R and ITGAV pairing (Sdc1:IGF1R:ITGAV receptor complex) in UM-SCC47 cells (Homo sapiens, UniProt P08069); test: Proximity ligation assay ITGAV:IGF1R in cultured cells; assay type: cell-based; details: UM-SCC47 cells pretreated for 6 hours with 30 μmol/L; 15 images over three experiments
T1 construct: endogenous in cells; host or cells: UM-SCC47
T1 sequence (P08069 31-736 limits assumed, one chain of several): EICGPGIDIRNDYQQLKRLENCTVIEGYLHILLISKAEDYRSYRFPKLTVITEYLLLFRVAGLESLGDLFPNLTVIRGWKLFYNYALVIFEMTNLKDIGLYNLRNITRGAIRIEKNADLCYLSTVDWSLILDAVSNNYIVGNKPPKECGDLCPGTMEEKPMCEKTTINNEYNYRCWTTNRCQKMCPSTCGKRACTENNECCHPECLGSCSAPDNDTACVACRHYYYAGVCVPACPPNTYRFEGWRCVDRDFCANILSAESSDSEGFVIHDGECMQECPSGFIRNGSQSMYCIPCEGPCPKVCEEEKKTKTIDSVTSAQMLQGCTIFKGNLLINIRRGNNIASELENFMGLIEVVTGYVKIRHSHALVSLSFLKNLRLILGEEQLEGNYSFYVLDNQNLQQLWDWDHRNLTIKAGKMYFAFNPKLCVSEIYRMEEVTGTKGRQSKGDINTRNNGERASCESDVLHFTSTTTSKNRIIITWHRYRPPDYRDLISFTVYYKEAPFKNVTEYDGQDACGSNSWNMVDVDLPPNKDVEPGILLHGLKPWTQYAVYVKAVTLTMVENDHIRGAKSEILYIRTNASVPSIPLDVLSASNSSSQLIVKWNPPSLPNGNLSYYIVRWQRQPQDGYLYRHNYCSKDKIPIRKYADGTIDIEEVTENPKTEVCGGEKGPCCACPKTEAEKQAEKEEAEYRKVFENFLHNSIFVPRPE
Experimental: (§3) UM-SCC47 cells treated with or without the SSTNIGF1R peptide for 6 hours were fixed in 4% paraformaldehyde, permeabilized in 0.5% Triton X-100 in 1× CMF-PBS (pH 7.4), and blocked for 1 hour at room temperature in a 3% BSA/CMF-PBS solution. Cells were stained with 1 μg/mL anti-Sdc1 polyclonal antibody, 2 μg/mL ITGAV antibody (NBP1-85746), or 4 μg/mL antibody to IGF1R (AF-305-NA) for 1 hour at room temperature, followed by incubation with 4 μg/mL Alexa488-conjugated secondary antibodies for 1 hour at room temperature. The nuclei were stained with 3 μmol/L DAPI (Molecular Probes) in 1× CMF-PBS (pH 7.4) for 10 minutes. For PLA, antibodies against ITGAV and IGF1R were used as described previously, followed by staining with PLA reagents according to the manufacturer's instructions.

[6] = Serum peptide analysis by mass spectrometry; details: mouse, in vivo, sc, mice, following sacrifice, 4.3 mg/kg/day by twice weekly subcutaneous injection, triplicate, read-out: steady-state concentration in plasma
Experimental: (§4) SSTNIGF1R levels in the serum of treated animals were measured in triplicate using an AB Sciex QTrap 5500 mass spectrometry system at the UW School of Pharmacy and quantified by comparison with a standard curve of peptide in mouse serum. IGF1 levels in the serum of animals bearing UW-SCC22 or UW-SCC64 tumors were measured using an ELISA kit from Thermo Fisher Scientific (EMIGF1) and compared with a mouse IGF1 standard according to the manufacturer's instructions.

[7] = allows use as a therapeutic agent in vivo; cited from earlier work
IGF1R in HaCat cells = biological target: T2, IGF1R in HaCat cells (Homo sapiens, UniProt P08069); test: IGF1R activation (pY1131) by immunoprecipitation and Western blot; assay type: cell-based; details: 3 hours, 100 ng/mL DES(1–3)IGF1, 30 μmol/L hSSTNIGF1R
T2 construct: endogenous in cells; host or cells: HaCat
T2 sequence (P08069 31-1367): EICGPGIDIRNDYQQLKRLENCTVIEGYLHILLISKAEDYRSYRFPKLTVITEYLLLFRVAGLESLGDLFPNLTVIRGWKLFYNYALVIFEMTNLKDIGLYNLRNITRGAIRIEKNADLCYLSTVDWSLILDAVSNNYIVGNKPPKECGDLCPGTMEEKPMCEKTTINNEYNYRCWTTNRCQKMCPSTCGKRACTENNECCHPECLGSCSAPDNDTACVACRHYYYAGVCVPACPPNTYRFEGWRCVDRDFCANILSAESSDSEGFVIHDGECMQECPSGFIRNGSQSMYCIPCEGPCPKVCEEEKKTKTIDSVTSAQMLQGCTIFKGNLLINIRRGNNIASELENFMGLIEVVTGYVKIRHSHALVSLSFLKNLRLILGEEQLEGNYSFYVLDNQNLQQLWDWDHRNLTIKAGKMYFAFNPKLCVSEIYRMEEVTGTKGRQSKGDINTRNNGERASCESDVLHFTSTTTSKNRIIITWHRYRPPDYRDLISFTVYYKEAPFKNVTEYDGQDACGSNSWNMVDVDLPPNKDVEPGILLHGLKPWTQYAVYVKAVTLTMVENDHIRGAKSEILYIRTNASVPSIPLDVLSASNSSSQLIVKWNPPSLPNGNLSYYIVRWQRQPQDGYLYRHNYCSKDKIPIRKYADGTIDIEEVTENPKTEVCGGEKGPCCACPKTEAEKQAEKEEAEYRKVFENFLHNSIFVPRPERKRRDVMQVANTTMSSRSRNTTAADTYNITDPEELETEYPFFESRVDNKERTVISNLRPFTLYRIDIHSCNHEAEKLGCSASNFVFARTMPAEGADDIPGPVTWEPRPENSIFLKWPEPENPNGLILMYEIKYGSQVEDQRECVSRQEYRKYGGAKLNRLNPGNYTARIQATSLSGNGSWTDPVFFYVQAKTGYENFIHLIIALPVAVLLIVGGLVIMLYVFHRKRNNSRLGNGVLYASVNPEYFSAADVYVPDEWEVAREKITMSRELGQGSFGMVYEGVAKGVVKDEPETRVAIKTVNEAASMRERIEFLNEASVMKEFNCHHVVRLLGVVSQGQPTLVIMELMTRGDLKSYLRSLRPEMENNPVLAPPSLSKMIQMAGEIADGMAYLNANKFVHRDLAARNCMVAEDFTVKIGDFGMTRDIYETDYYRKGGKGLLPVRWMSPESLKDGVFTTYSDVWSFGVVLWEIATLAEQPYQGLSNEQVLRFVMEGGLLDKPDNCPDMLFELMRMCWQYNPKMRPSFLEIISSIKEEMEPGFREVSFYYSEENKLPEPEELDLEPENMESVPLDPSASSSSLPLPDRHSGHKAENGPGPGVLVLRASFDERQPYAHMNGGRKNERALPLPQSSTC
Experimental: (§5) Immunoprecipitation of IGF1R with or without competing SSTN peptide was carried out as described previously ([18, 19]) using 0.5–1.0 mg of input/sample and lysis buffer supplemented with HALT protease and phosphatase inhibitor cocktail (Thermo Fisher Scientific).

IGF1R in UM-SCC47 cells = biological target: T3, IGF1R in UM-SCC47 cells (Homo sapiens, UniProt P08069); test: as above; assay type: cell-based; details: 3 hours, 100 ng/mL DES(1–3)IGF1, 30 μmol/L hSSTNIGF1R
T3 construct: constitutively active IGF1R is identified in UW-SCC47 cells by staining for pY1131; endogenous in cells; host or cells: UM-SCC47
T3 sequence (P08069 31-1367): as above
Experimental: as §5

Serum IGF1 ELISA = assay type: in vivo, mice; details: for IGF1 (ng/mL) ± SD: hSSTNIGF1R delivered by Alzet pumps, ELISA, n = 6
Experimental: as §4

UW-SCC22 HNSCC PDX = test: PDX tumor growth in nude mice; assay type: in vivo; details: 4 weeks; for reduction of tumor growth compared with controls: P < 0.001
Description: (§6) Animal studies were approved by the University of Wisconsin–Madison Institutional Animal Care and Use Committee in accordance with the NIH guidelines. UW-SCC22 or UW-SCC64 PDXs derived from head and neck tumors ([31, 32]) were provided by Wisconsin Head and Neck Cancer SPORE (https://hn-spore.wisc.edu). Minced tissue isolated from host mice was subcutaneously injected into both flanks of 6–8 weeks old female, athymic Foxn1^nu outbred nude mice (Harlan Laboratories). After 1 week, animals were randomized and surgically implanted with Alzet (Durect Corp.) osmotic pumps (Model 2004) delivering 0.25 μL/hour of either PBS or PBS containing 4 mmol/L hSSTNIGF1R for 4 weeks. Animals were humanely sacrificed, bled, and tumors were removed and fixed in 4% paraformaldehyde before paraffin embedding and sectioning.

UW-SCC64 PDX = test: PDX tumor growth in nude mice; assay type: in vivo; details: peptide delivered by the pump only, P < 0.001
Description: as §6

[8] = biological target: T4, ITGAV and IGF1R pairing in UW-SCC22 PDX tumors (Homo sapiens, UniProt P08069); test: PLA between IGF1R and ITGAV on tumor sections; assay type: in vivo, nude mice; details: 4 weeks
T4 construct: from tissue; host or cells: UW-SCC22 and UW-SCC64 PDX tumours, subcutaneous in nude mice
T4 sequence (P08069 31-736 limits assumed): as the sequence (P08069 31-736 limits assumed, one chain of several) above
Experimental: (§7) Paraffin-embedded PDX sections, sections of deidentified archival tumors from patients with tonsil carcinoma, or TMAs assembled from patients with deidentified oropharyngeal (TMA-01, TMA-02) or adenoid cystic (TMA-03) carcinoma were deparaffinized and subjected to antigen retrieval by heating in 10 mmol/L sodium citrate (pH 6.0) with 0.05% Tween 20 until boiling and then maintained at 99°C for 20 minutes before cooling to room temperature. The sections were then used for receptor and PLA staining, as described above. Fluorescent images were acquired using either a Zeiss PlanAPOCHROMAT 20X objective (0.8 NA) or 40X (1.4 NA) and a Zeiss AxioCam Mrm CCD camera on a Zeiss Axio Imager.M2 microscopy system. CellProfiler 3.1.5 (Carpenter Lab, Broad Institute of Harvard and MIT) was used to quantify nuclei and PLA signals with threshold limits based on relevant comparative controls. Cell Profiler software analysis was checked by direct comparison with visual quantification of PLA dots or DAPI-stained nuclei in test images to accurately quantify PLA dots per cell and to exclude false or background fluorescence. The specificity of the antibodies used and the concentrations of PLA reagents used were optimized on test samples before use on experimental sections.

[9] = biological target: T5, ITGAV and IGF1R pairing in UW-SCC64 PDX tumors (Homo sapiens, UniProt P08069); test: PLA between IGF1R and ITGAV on tumor sections; assay type: in vivo, nude mice; details: pump
T5 construct: from tissue; host or cells: UW-SCC22 and UW-SCC64 PDX tumours, subcutaneous in nude mice
T5 sequence (P08069 31-736 limits assumed): as the sequence (P08069 31-736 limits assumed, one chain of several) above
Experimental: as §7

[10] = test system: Sdc1, IGF1R, ITGAV cell surface expression in UM-SCC47 cells; test: Immunofluorescent receptor staining of cultured cells; assay type: cell-based, human; details: UM-SCC47 cells pretreated 6 hours with 30 μmol/L, compared with vehicle alone
Experimental: as §3

HaCaT keratinocyte = test: Stress and apoptosis marker antibody array; assay type: cell-based, human; details: 16 hours, 30 μmol/L (mSSTNIGF1R per Fig. 4B)
Experimental: as §2

SCC25 cells [11] = test: Stress and apoptosis marker antibody array; assay type: cell-based, human; details: SCC25 lysates; 16 hours, 30 μmol/L (mSSTNIGF1R per Fig. 4B); compared with vehicle
Experimental: as §2

HTE = test: Stress and apoptosis marker antibody array; assay type: cell-based, human; details: 16 hours, 30 μmol/L (mSSTNIGF1R per Fig. 4B)
Experimental: as §2

UM-SCC47 cells [12] = test: Stress and apoptosis marker antibody array; assay type: cell-based, human; details: UM-SCC47 lysates; 16 hours, 30 μmol/L (mSSTNIGF1R per Fig. 4B); compared with vehicle
Experimental: as §2

NOK = test: Stress and apoptosis marker antibody array; assay type: cell-based, human; details: 16 hours, 30 μmol/L (mSSTNIGF1R per Fig. 4B)
Experimental: as §2

[13] = test system: ASK-1 in UW-SCC64 PDX tumors; test: pT845-ASK1 staining of tumor sections; assay type: in vivo, nude mice; details: as early as the 3-day timepoint
Experimental: as §7

[14] = test system: ASK-1 in UW-SCC22 PDX tumors; test: pT845-ASK1 staining of tumor sections; assay type: in vivo, nude mice; details: UW-SCC22 tumors treated by injection or pump for 4 weeks
Experimental: as §7

[15] = test system: ASK1 (pT845), pp38MAPK, pJNK in UM-SCC47 cells; test: Temporal activation of ASK1, p38MAPK and JNK; assay type: cell-based, human; details: 30 minutes after treatment with 30 μmol/L hSSTNIGF1R

## LPAGEKPEEGEPVLHVEAEPGFTARDKE [active mSSTNIGF1R]
SCC6 HNSCC cell line
  cell growth: reduced growth
UM-SCC1 HNSCC cell line
  cell growth: reduced growth
HaCaT keratinocytes
  cell growth: unaffected
UD-SCC2 HNSCC cell line
  cell growth: reduced growth
SCC90 HNSCC cell line
  cell growth: reduced growth
[1]
  cell growth: unaffected
TU-138 HNSCC cell line
  cell growth: reduced growth
Normal HTE cells
  cell growth: unaffected
UM-SCC47 cells [2]
  IC50: 1 to 10 µM
SCC25 cells [3]
  IC50: 1 to 10 µM

## CCOC(=O)c1c2c3c(cccc3[nH]c1=O)C(=O)c1ccccc1-2 [NQD1, NQDI-1]
UM-SCC47 cells [4]
  caspase 3 activation induced by 30 μmol/L SSTNIGF1R: gradually reduce
UM-SCC47 cells [2]; UM-SCC47, 24 hours, NQD1 up to 30 μmol/L with 30 μmol/L SSTNIGF1R, CellTiter-GLO
  restoration of cell growth in the SSTN-treated cells: 80%

## inactive mSSTNIGF1R: Inactive control peptide, amino acids 94–119 of mouse Sdc1 (AGEKPEEGEPVLHVEAEPGFTARDKE; UniProt P18828 94-119, looked up, fragment) [reference compound]
UM-SCC47 cells [2]; UM-SCC47, up to 6 days, concentration range, CellTiter-GLO
  effect on cell numbers: no effect
SCC25 cells [3]; SCC25, up to 6 days, concentration range, CellTiter-GLO
  effect on cell numbers: no effect

## STSTLPAGEGPKEGEAVVLPEVEPGLTAREQE [hSSTNIGF1R]
[5]
  PLA signal, colocalization of IGF1R and ITGAV: signal is lost
[6]
  level at time molar: 13 µM
[7]
  half-life: ~24 h
IGF1R in HaCat cells
  IGF1-mediated activation of IGF1R (pY1131): unaffected
IGF1R in UM-SCC47 cells
  IGF1-mediated activation of IGF1R (pY1131): blocked
Serum IGF1 ELISA; animals bearing UW-SCC22 tumors
  serum levels of IGF1: no change
Serum IGF1 ELISA; animals bearing UW-SCC64 tumors
  serum levels of IGF1: no change
Serum IGF1 ELISA; serum of mice bearing UW-SCC22, saline control 34.8 ± 1.0
  IGF1 (ng/mL) ± SD: 34.6 ± 0.9 ng/mL
Serum IGF1 ELISA; serum of mice bearing UW-SCC64, saline control 34.0 ± 0.9
  IGF1 (ng/mL) ± SD: 33.7 ± 1.1 ng/mL
UW-SCC22 HNSCC PDX; 4.3 mg/kg/day, Alzet pump
  reduction of tumor growth compared with controls: approximately 94%
UW-SCC22 HNSCC PDX; 4.3 mg/kg/day, constant infusion via Alzet pump, start 102 ± 21 mm^3, saline 2,767 ± 631 mm^3
  tumor size after treatment: 270 ± 49 mm^3
UW-SCC22 HNSCC PDX; 4.3 mg/kg/day, twice weekly subcutaneous injection
  tumor size after treatment: 664 ± 138 mm^3
UW-SCC22 HNSCC PDX; twice weekly subcutaneous injection
  reduction of tumor growth compared with controls: 79%
UW-SCC64 PDX
  reduction of tumor growth compared with saline-treated controls: 85%
[8]; plasma concentration 13 μmol/L (injection), versus saline-treated tumors
  reduction of ITGAV and IGF1R pairing (PLA): 90%
[8]; plasma concentration 32 μmol/L, pump-mediated delivery
  ITGAV and IGF1R pairing (PLA): reduced to nearly undetectable levels
[9]; UW-SCC64 tumors after 3-day treatment
  reduction of ITGAV and IGF1R pairing (PLA): 80%
[9]; UW-SCC64 tumors, 5-week treatment
  ITGAV and IGF1R pairing (PLA): essentially abolished
[10]
  cell surface expression of Sdc1, IGF1R, ITGAV: no change
HaCaT keratinocyte
  change in apoptotic markers (antibody array): little or no response
SCC25 cells [11]
  change in apoptotic markers (antibody array): significant increases in activated caspase 3 and PARP, and reduced levels of survivin and phosphorylated Erk, Akt, and Bad
HTE
  change in apoptotic markers (antibody array): little or no response
UM-SCC47 cells [12]
  change in apoptotic markers (antibody array): significant increases in activated caspase 3 and PARP, and reduced levels of survivin and phosphorylated Erk, Akt, and Bad
NOK
  change in apoptotic markers (antibody array): little or no response
[13]
  pT845-ASK1 staining: pT845 staining indicative of ASK-1 activation
[14]
  pT845-ASK-1 staining: Positive staining
[15]
  active ASK1 (pT845), pp38MAPK, and pJNK: increased
